Laboratory results as given in PubChem BioAssay (NCI).
Where “and” joins values, the source holds several entries; their conditions need not be identical. Identical values can stand only once.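 How tested: cells in 96-well plates exposed to compound for 48 hours at five concentrations. GI50 is the concentration that inhibits growth by half. TGI marks complete inhibition of growth.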

How the values were obtained:
Experiment in all cases: DTP human tumour cell line panel, 48 h
BT-549 breast = tested on: BT-549 breast
CAKI-1 renal = tested on: CAKI-1 renal
KM12 colon = tested on: KM12 colon
MDA-MB-231 breast = tested on: MDA-MB-231 breast
SK-MEL-28 melanoma = tested on: SK-MEL-28 melanoma
SN12C renal = tested on: SN12C renal
UACC-257 melanoma = tested on: UACC-257 melanoma

SMILES	GI50 (BT-549 breast) [µM]	TGI (BT-549 breast)	GI50 (CAKI-1 renal) [µM]	TGI (CAKI-1 renal)	GI50 (KM12 colon) [µM]	TGI (KM12 colon)	GI50 (MDA-MB-231 breast) [µM]	TGI (MDA-MB-231 breast)	GI50 (SK-MEL-28 melanoma) [µM]	TGI (SK-MEL-28 melanoma)	GI50 (SN12C renal) [µM]	TGI (SN12C renal)	GI50 (UACC-257 melanoma) [µM]	TGI (UACC-257 melanoma)
O=C1OCC2=C1C(c1cccc(C(F)(F)F)c1)c1cc3c(cc1N2CCO)OCCO3 (centres undefined)	1.81	> 33.3 µM	1.15	> 33.3 µM	1.08	> 33.3 µM	1.7	> 33.3 µM	1.71	> 33.3 µM	2.21	> 33.3 µM	> 33.3	> 33.3 µM
COc1cc(C)cc(C(=O)/C=C/c2ccccc2)c1O	–	37.8 µM	–	39.1 µM	–	41.2 µM	–	47.9 µM	–	50.7 µM	–	34 µM	–	37.7 µM
COc1cc(/C=C/C(=O)CC(=O)/C=C/c2cc(OC)c(O)c(OC)c2)cc(OC)c1O	13.4	25 µM and 34.4 µM	21.1	25 µM and > 100 µM	13.5	15.4 µM and 31.1 µM	9.37	25 µM and 32.6 µM	14.1	21.5 µM and 57.8 µM	57.3	23.7 µM and > 100 µM	23.5	25 µM and > 100 µM
OCCCCC#Cc1ccccc1C#Cc1cccnc1	28.4	> 100 µM	29.1	83.5 µM	35.2	> 100 µM	22.4	69.7 µM	23.7	> 100 µM	26.9	82.6 µM	25	54.1 µM
